Read-outs that look alike come from different tables or passages of the source.
Legend:
SKBR3 = experiment: cells; type: cell-based
Description: (§1) From the stock concentration, 8 serial dilutions (1:5) were made with DMSO.
(§2) Day −1: Plate cells in 100 μl volume in 96 well plate. • Note: Cell number seeded adjusted for growth characteristics, so that at time of assay for proliferation following three-day drug treatment, the control wells should still be in log-growth phase (sub-confluent). Day 0: Drug added to plate for treatment. • A time 0 plate was processed for the proliferation assay to establish a baseline reading at time when drug was added.
(§3) LBNL are following the protocols set up by the NCI/NIH DTP Human Tumor Cell Line Screen Process (http://dtp.nci.nih.gov/branches/btb/ivclsp.html) and summarized below.
(§4) [(Ti−Tz)/(C−Tz)]×100 for concentrations for which Ti>/=Tz
(§5) [(Ti−Tz)/(C−Tz)]×100=50, • which is the drug concentration resulting in a 50% reduction in the net growth in control cells during the drug incubation. TGI: Total growth inhibition is calculated from
(§6) Ti=Tz. • The drug concentration resulting in total growth inhibition (down to the ‘time 0’ baseline). LC50: Net loss of cell growth at 50% is calculated from
(§7) [(Ti−Tz)/Tz]×100=−50. • The concentration of drug resulting in a 50% reduction in the cell number at the end of the drug treatment as compared to that at the beginning (time 0) indicating a net loss of cells following treatment.
(§8) Values are calculated for each of these three parameters if the level of activity is reached; however, if the effect is not reached or is exceeded, the value for that parameter is expressed as greater or less than the maximum or minimum concentration tested.

MDAMB415 = experiment: cells; type: cell-based
Description: as §1, §2, §3, §4, §5, §6, §7, §8

MCF12A = experiment: cells; type: cell-based
Description: as §1, §2, §3, §4, §5, §6, §7, §8

HCC1428 = experiment: cells; type: cell-based
Description: as §1, §2, §3, §4, §5, §6, §7, §8

MCF7 = experiment: cells; type: cell-based
Description: as §1, §2, §3, §4, §5, §6, §7, §8

T47DKBluc = experiment: cells; type: cell-based
Description: as §1, §2, §3, §4, §5, §6, §7, §8

MDAMB453 = experiment: cells; type: cell-based
Description: as §1, §2, §3, §4, §5, §6, §7, §8

HCC2185 = experiment: cells; type: cell-based
Description: as §1, §2, §3, §4, §5, §6, §7, §8

HCC38 = experiment: cells; type: cell-based
Description: as §1, §2, §3, §4, §5, §6, §7, §8

MX-1 = experiment: cells; type: cell-based
Description: as §1, §2, §3, §4, §5, §6, §7, §8

BT483 = experiment: cells; type: cell-based
Description: as §1, §2, §3, §4, §5, §6, §7, §8

MDA-MB-468 = experiment: Panel A proliferation assay (CellTiter-Glo); HER2 2 copies, KRAS WT, PIK3CA WT; type: cell-based, human; settings: for IC50: Homo sapiens
Description: (§9) A total of 15 breast cancer cell lines were used in this study. […] Cells of each line were seeded into a 384-well microtiter plate at two cell densities. Low density ranges were 300-1800 cells/well, and a high density was 600 to 3600 cells/well). The plating density was determined by the rate of proliferation of the cell line in the absence of any inhibitor and varied amongst cell lines. High plating densities were double that of low density. Each cell density was plated in triplicate. […] In addition, there were 24 wells of dimethyl sulfoxide (DMSO)-treated controls at each density. After seeding, the cells were incubated at 37° C. in 5% CO2 for 24 hours. […] After a 72 h incubation, an equal volume of the CellTiter-Glo (CellTiter-Glo Luminescent Cell Viability Assay, Promega, Madison, Wis.) to that of the cell culture medium was added into each well of the plate. After the contents were mixed to induce cell lysis and stabilization, cell luminescence was recorded using a SpectraMax M5^e (Molecular Devices, Sunnyvale, Calif., USA)
(§10) Specifically, the midpoint of the growth window (the gIC50) falls half way between the number of cells at the time of compound addition (T=0) and the growth of control cells treated with DMSO. The gIC50 value serves as a metric for measuring the inhibition of proliferation in cancer cells. The curves for each seeding density for each cell line were manually inspected for both data quality and appropriateness of curve fitting. Where the starting data were poor the curve and subsequent gIC50s were excluded from further analysis. Cell line seedings were considered of poor quality when the r^2 value of the fitted curve was <0.75. Finally, where data quality permits, the Ymin values (defined as the maximum growth inhibition relative to the cell density at Time-zero) were calculated as a measure of cytotoxicity where data were of reasonable quality.

DU4475 = experiment: as above; type: cell-based, human; settings: for IC50: Homo sapiens, DU-4475
Description: as §9, §10

NCI/ADR-RES = experiment: as above; type: cell-based, human; settings: for IC50: Homo sapiens
Description: as §9, §10

In the case of COc1ncc(-c2ccc3nccc(-c4ccnnc4)c3c2)cc1NS(=O)(=O)c1ccc(F)cc1F [Compound B, 2,4-difluoro-N-{2-(methyloxy)-5-[4-(4-pyridazinyl)-6-quinolinyl]-3-pyridinyl}benzenesulfonamide], the IC50 (SKBR3; Homo sapiens, SK-BR-3, 72 h, SKBR3, three-day drug treatment, read-out: gIC50) is reported as 3.2 nM, the TGI (SKBR3; SKBR3, total growth inhibition) is reported as 199.5 nM and the IC50 (MDAMB415; Homo sapiens, MDA-MB-415, 72 h, MDAMB415, three-day drug treatment, read-out: gIC50) is reported as 20.8 nM. For the same compound, the CC50 (MDAMB415; Homo sapiens, MDA-MB-415, MDAMB415, 50% net loss of cells vs time 0, read-out: LC50 (the source's name)) was 528 nM, the TGI (MDAMB415; MDAMB415, total growth inhibition) was 117.7 nM and the IC50 (MCF12A; Homo sapiens, MCF-12A, 72 h, three-day drug treatment, read-out: gIC50) was 7.4 nM. For the same compound, the TGI (MCF12A; total growth inhibition) was 178.5 nM, the TGI (HCC1428; HCC1428, total growth inhibition) was 158.5 nM and the IC50 (HCC1428; Homo sapiens, 72 h, HCC1428, three-day drug treatment, read-out: gIC50) was 16.2 nM. For the same compound, the CC50 (HCC1428; Homo sapiens, HCC1428, 50% net loss of cells vs time 0, read-out: LC50 (the source's name)) was 5250 nM, the IC50 (MCF7; Homo sapiens, 72 h, MCF7, three-day drug treatment, read-out: gIC50) was 7.3 nM and the CC50 (MCF7; Homo sapiens, MCF7, 50% net loss of cells vs time 0, read-out: LC50 (the source's name)) was 149 nM. It also gave a TGI (MCF7; MCF7, total growth inhibition) of 22.0 nM, a CC50 (T47DKBluc; Homo sapiens, 50% net loss of cells vs time 0, read-out: LC50 (the source's name)) of 9500 nM and an IC50 (T47DKBluc; Homo sapiens, 72 h, three-day drug treatment, read-out: gIC50) of 15.4 nM. The TGI (T47DKBluc; total growth inhibition) was 74.3 nM, the IC50 (MDAMB453; Homo sapiens, MDA-MB-453, 72 h, MDAMB453, three-day drug treatment, read-out: gIC50) was 7.8 nM and the CC50 (MDAMB453; Homo sapiens, MDA-MB-453, MDAMB453, 50% net loss of cells vs time 0, read-out: LC50 (the source's name)) was 162 nM. The TGI (MDAMB453; MDAMB453, total growth inhibition) was 54.9 nM, the TGI (HCC2185; HCC2185, total growth inhibition) was 10.0 nM and the IC50 (HCC2185; Homo sapiens, 72 h, HCC2185, three-day drug treatment, read-out: gIC50) was 3.2 nM. For the same compound, the CC50 (HCC2185; Homo sapiens, HCC2185, 50% net loss of cells vs time 0, read-out: LC50 (the source's name)) was 132 nM, the TGI (HCC38; HCC38, total growth inhibition) was 158.5 nM and the IC50 (HCC38; Homo sapiens, 72 h, HCC38, three-day drug treatment, read-out: gIC50) was 55 nM. For the same compound, the CC50 (HCC38; Homo sapiens, HCC38, 50% net loss of cells vs time 0, read-out: LC50 (the source's name)) was 355 nM, the IC50 (MX-1; Homo sapiens, MX1, 72 h, MX-1, three-day drug treatment, read-out: gIC50) was 5.2 nM and the CC50 (MX-1; Homo sapiens, MX1, MX-1, 50% net loss of cells vs time 0, read-out: LC50 (the source's name)) was 251 nM. For the same compound, the TGI (MX-1; MX-1, total growth inhibition) was 20.4 nM, the TGI (BT483; BT483, total growth inhibition) was 8.5 nM and the IC50 (BT483; Homo sapiens, BT-483, 72 h, BT483, three-day drug treatment, read-out: gIC50) was 1.5 nM. For the same compound, the CC50 (BT483; Homo sapiens, BT-483, BT483, 50% net loss of cells vs time 0, read-out: LC50 (the source's name)) was 1170 nM, the IC50 (MDA-MB-468; MDA-MB-468, high seeding density, 72 h, read-out: High Density gIC50) was 32.1 nM and the IC50 (MDA-MB-468; MDA-MB-468, low seeding density, 72 h, read-out: Low Density gIC50) was 37.2 nM. For the same compound, the IC50 (MDA-MB-468; MDA-MB-468, mean of low and high density, read-out: Mean gIC50) was 34.9 nM, the “High Density Y-Min” value (MDA-MB-468; MDA-MB-468, high density, % of cells at T = 0) was 35.5% and the “Low Density Y-Min” value (MDA-MB-468; MDA-MB-468, low density, % of cells at T = 0) was 27.9%. The “High Density Y-Min” value (DU4475; DU4475, high density, % of cells at T = 0) was −8.4%, the “Low Density Y-Min” value (DU4475; DU4475, low density, % of cells at T = 0) was 1.2% and the IC50 (DU4475; DU4475, high seeding density, 72 h, read-out: High Density gIC50) was 20.6 nM. The IC50 (DU4475; DU4475, low seeding density, 72 h, read-out: Low Density gIC50) was 3.6 nM, the IC50 (DU4475; DU4475, mean of low and high density, read-out: Mean gIC50) was 12.1 nM and the IC50 (NCI/ADR-RES; high seeding density, 72 h, read-out: High Density gIC50) was 25.4 nM. For the same compound, the IC50 (NCI/ADR-RES; low seeding density, 72 h, read-out: Low Density gIC50) was 51.6 nM, the IC50 (NCI/ADR-RES; mean of low and high density, read-out: Mean gIC50) was 38.5 nM and the “High Density Y-Min” value (NCI/ADR-RES; high density, % of cells at T = 0) was 98.9%. For the same compound, the “Low Density Y-Min” value (NCI/ADR-RES; low density, % of cells at T = 0) was 518.6%.

— patent US20130317037A1, “METHOD OF ADMINISTRATION AND TREATMENT” (GlaxoSmithKline Intellectual Property Development Limited, priority 2010, published 2013)
